Laboratory results as given in ChEMBL document CHEMBL4842340, “Development of Cagrilintide, a Long-Acting Amylin Analogue” (J Med Chem, 2021).
≈ marks a conversion by molar mass, not a printed value. *1 amine or outer side, *2 acyl side, *3 side chain or, on linkers, in order; H or OH if unused. Where a SMILES comes first, the peptide text is derived from it. Bridges are numbered along the chain shown (N, C = ends). [ ]: non-standard residue; d: D form. The star is where a group is joined. X1 = O=C(NC(=O)[C@H](Cc1cnc[nH]1)N[*:1])[C@@H](Cc1cnc[nH]1)C(=O)[*:2]; C20 diacid = O=C(O)CCCCCCCCCCCCCCCCCCC(=O)*; γGlu = O=C(O)[C@H](CCC(=O)[*:2])N[*:1]

Key:
[1] = Displacement of [125I]-amylin from rat AMY3R (CTR+RAMP3) expressed in BHK-13 cells measured after 120 mins by scintillation proximity assay; format: cell-based
[2] = Agonist activity at human AMY3R (CT+RAMP3) expressed in Hollex1 cells incubated for 3 hrs by luminescence assay; format: cell-based; conditions: Hollex1, 3 h
[3] = Solubility of the compound in lactate at pH 4 by UPLC analysis; format: physicochemical; conditions: lactate buffer
[4] = Solubility of the compound in lactate at pH 3 by UPLC analysis; format: physicochemical; conditions: lactate buffer
[5] = Displacement of [125I]-calcitonin from rat calcitonin receptor expressed in tk-ts 13 cells measured after 120 mins by scintillation proximity assay; format: cell-based; conditions: tk-ts13
[6] = Agonist activity at human calcitonin receptor expressed in BHK570 cells assessed as increase in intracellular cAMP concentration incubated for 3 hrs in absence of albumin by CRE luciferase reporter gene assay; format: cell-based; conditions: BHK570, 3 h
[7] = Displacement of [125I]-amylin from human AMY3R (CTR+RAMP3) expressed in BHK-13 cells measured after 120 mins by scintillation proximity assay; format: cell-based
[8] = Displacement of [125I]-calcitonin from human calcitonin receptor expressed in tk-ts 13 cells measured after 120 mins by scintillation proximity assay; format: cell-based; conditions: tk-ts13
[9] = organism: Homo sapiens; assay: Ratio of IC50 for displacement of [125I]-calcitonin from human calcitonin receptor expressed in tk-ts 13 cells to IC50 for displacement of [125I]-amylin from human AMY3R (CTR+RAMP3) expressed in BHK-13 cells; format: cell-based
[10] = organism: Homo sapiens; assay: Ratio of EC50 for human calcitonin receptor expressed in BHK570 cells to EC50 for human AMY3R (CT+RAMP3) expressed in Hollex1 cells; format: cell-based
[11] = target: Insulin (Homo sapiens) (UniProt P01308); assay: Effect on insulin (unknown origin) amyloid fibril formation assessed as peptide recovery in glycyl-glycine buffer at pH 4 measured after 45 hrs by thioflavin-T fluorescence assay relative to control; parameters: concentration or dose not given beside the values
[12] = target: Insulin (Homo sapiens) (UniProt P01308); assay: Effect on insulin (unknown origin) amyloid fibril formation assessed as lag time in glycyl-glycine buffer at pH 4 measured after 45 hrs by thioflavin-T fluorescence assay
[13] = organism: Rattus norvegicus; assay: Ratio of IC50 for displacement of [125I]-calcitonin from rat calcitonin receptor expressed in tk-ts 13 cells to IC50 for displacement of [125I]-amylin from rat AMY3R (CTR+RAMP3) expressed in BHK-13 cells; format: cell-based
[14] = test system: Rattus norvegicus; assay: Reduction in food intake in Sprague-Dawley rat at 3 nmol/kg, sc administered as single dose measured upto 24 hrs relative to control; format: functional; parameters: scale not given: the % may be the effect or the level left; conditions: time hrs <=24
[15] = organism: Rattus norvegicus; assay: Ratio of EC50 for rat calcitonin receptor expressed in BHK-13 cells to EC50 for rat AMY3R (CT+RAMP3) expressed in tk-ts13 cells; format: cell-based
[16] = test system: Rattus norvegicus; assay: Reduction in food intake in Sprague-Dawley rat at 3 nmol/kg, sc administered as single dose measured after 24 to 48 hrs relative to control; format: functional; parameters: scale not given: the % may be the effect or the level left; conditions: time 24-48 hrs
[17] = Solubility of the compound in bis-tris propane at pH 7.5 by UPLC analysis; format: physicochemical; conditions: bis-tris propane buffer
[18] = Solubility of the compound in bis-tris propane at pH 6 by UPLC analysis; format: physicochemical; conditions: bis-tris propane buffer
[19] = Solubility of the compound in bis-tris propane at pH 8 by UPLC analysis; format: physicochemical; conditions: bis-tris propane buffer
[20] = Agonist activity at rat AMY3R (CT+RAMP3) expressed in tk-ts13 cells assessed as increase in intracellular cAMP level incuabted for 25 mins by CRE luciferase reporter gene assay; format: cell-based; conditions: tk-ts13, 25 min
[21] = Solubility of the compound in bis-tris propane at pH 6.5 by UPLC analysis; format: physicochemical; conditions: bis-tris propane buffer
[22] = Agonist activity at rat calcitonin receptor expressed in BHK-13 cells assessed as increase in intracellular cAMP concentration incubated for 25 mins by CRE luciferase reporter gene assay; format: cell-based; conditions: BHK-13, 25 min
[23] = Solubility of the compound in bis-tris propane at pH 7 by UPLC analysis; format: physicochemical; conditions: bis-tris propane buffer
[24] = Solubility of the compound in lactate at pH 5 by UPLC analysis; format: physicochemical; conditions: lactate buffer

Insulin (Homo sapiens), sequence (P01308 whole entry): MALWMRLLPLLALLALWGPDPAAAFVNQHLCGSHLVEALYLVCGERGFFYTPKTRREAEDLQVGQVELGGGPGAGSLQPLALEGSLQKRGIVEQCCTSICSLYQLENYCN

Row | SMILES | IC50 [1] [nM] | EC50 [2] [nM] | solubility [3] [µM] | solubility [4] [µM] | IC50 [5] [nM] | EC50 [6] [nM] | IC50 [7] [nM] | IC50 [8] [nM] | Ratio IC50 [9] | Ratio EC50 [10] | Activity [11] [%] | TIME [12] [h] | Ratio IC50 [13] | Activity [14] [%] | Ratio EC50 [15] | Activity [16] [%] | EC50 [20] [nM] | EC50 [22] [nM] | further results
1 | CC[C@H](C)[C@H](NC(=O)[C@H](CCC(=O)O)NC(=O)CNC(=O)[C@H](Cc1ccccc1)NC(=O)[C@H](CC(N)=O)NC(=O)[C@H](CC(N)=O)NC(=O)[C@H](CO)NC(=O)[C@H](CO)NC(=O)[C@H](CCCNC(=N)N)NC(=O)[C@H](Cc1cnc[nH]1)NC(=O)[C@H](CC(C)C)NC(=O)[C@H](Cc1ccccc1)NC(=O)[C@H](CCC(=O)O)NC(=O)[C@H](C)NC(=O)[C@H](CC(C)C)NC(=O)[C@H](CCCNC(=N)N)NC(=O)[C@H](CCC(N)=O)NC(=O)[C@@H](NC(=O)[C@H](C)NC(=O)[C@@H]1CSSC[C@H](NC(=O)[C@H](Cc2cnc[nH]2)NC(=O)CC[C@H](NC(=O)CCCCCCCCCCCCCCCCCCC(=O)O)C(=O)O)C(=O)N[C@@H](CC(N)=O)C(=O)N[C@@H]([C@@H](C)O)C(=O)N[C@@H](C)C(=O)N[C@@H]([C@@H](C)O)C(=O)N1)[C@@H](C)O)C(=O)N[C@@H](CC(C)C)C(=O)N[C@@H](CO)C(=O)N[C@@H](CCCNC(=N)N)C(=O)N[C@H](C(=O)N[C@@H](CC(N)=O)C(=O)N[C@H](C(=O)NCC(=O)N[C@@H](CO)C(=O)N[C@@H](CC(N)=O)C(=O)N[C@H](C(=O)N[C@@H](Cc1ccc(O)cc1)C(N)=O)[C@@H](C)O)C(C)C)[C@@H](C)O | 0.445 | 0.077 | 200 (≈ 913 µg/mL) | 200 (≈ 913 µg/mL) | 1.37 | 0.129 | 0.818 | 1.54 |  |  |  |  |  |  |  |  |  |  | 
2 | CC[C@H](C)[C@H](NC(=O)[C@@H](CCC(=O)O)NC(=O)CNC(=O)[C@H](Cc1ccccc1)NC(=O)[C@H](CC(N)=O)NC(=O)[C@H](CC(N)=O)NC(=O)[C@H](CO)NC(=O)[C@H](CO)NC(=O)[C@H](CCCNC(=N)N)NC(=O)[C@H](Cc1cnc[nH]1)NC(=O)[C@H](CC(C)C)NC(=O)[C@H](Cc1ccccc1)NC(=O)[C@H](CCC(=O)O)NC(=O)[C@H](C)NC(=O)[C@H](CC(C)C)NC(=O)[C@H](CCCNC(=N)N)NC(=O)[C@H](CCC(N)=O)NC(=O)[C@@H](NC(=O)[C@H](C)NC(=O)[C@@H]1CSSC[C@H](NC(=O)[C@H](Cc2cnc[nH]2)NC(=O)CC[C@H](NC(=O)CCCCCCCCCCCCCCCCCCC(=O)O)C(=O)O)C(=O)N[C@@H](CC(N)=O)C(=O)N[C@@H]([C@@H](C)O)C(=O)N[C@@H](C)C(=O)N[C@@H]([C@@H](C)O)C(=O)N1)[C@H](C)O)C(=O)N[C@@H](CC(C)C)C(=O)N[C@@H](CO)C(=O)N[C@@H](CCCNC(=N)N)C(=O)N[C@H](C(=O)N[C@@H](CC(N)=O)C(=O)N[C@H](C(=O)NCC(=O)N[C@@H](CO)C(=O)N[C@@H](CC(N)=O)C(=O)N[C@H](C(=O)N[C@@H](Cc1ccc(O)cc1)C(N)=O)[C@@H](C)O)C(C)C)[C@@H](C)O |  |  |  |  |  |  |  |  | 2 | 2 | 0 | 0 | 3 |  |  |  |  |  | 
3 | CC[C@H](C)[C@H](NC(=O)[C@@H]1CCCN1C(=O)CNC(=O)[C@H](Cc1ccccc1)NC(=O)[C@H](CC(N)=O)NC(=O)[C@H](CC(N)=O)NC(=O)[C@H](CO)NC(=O)[C@H](CO)NC(=O)[C@H](Cc1c[nH]cn1)NC(=O)[C@H](CCCNC(=N)N)NC(=O)[C@H](CC(C)C)NC(=O)[C@H](Cc1ccccc1)NC(=O)[C@H](CCC(=O)O)NC(=O)[C@H](C)NC(=O)[C@H](CC(C)C)NC(=O)[C@H](CCCNC(=N)N)NC(=O)[C@H](CCC(N)=O)NC(=O)[C@@H](NC(=O)[C@H](C)NC(=O)[C@@H]1CSSC[C@H](NC(=O)[C@H](CCCCN)NC(=O)CC[C@H](NC(=O)CCCCCCCCCCCCCCCCCCC(=O)O)C(=O)O)C(=O)N[C@@H](CC(N)=O)C(=O)N[C@@H]([C@@H](C)O)C(=O)N[C@@H](C)C(=O)N[C@@H]([C@@H](C)O)C(=O)N1)[C@@H](C)O)C(=O)N[C@@H](CC(C)C)C(=O)N1CCC[C@H]1C(=O)N1CCC[C@H]1C(=O)N[C@H](C(=O)N[C@@H](CC(N)=O)C(=O)N[C@H](C(=O)NCC(=O)N[C@@H](CO)C(=O)N[C@@H](CC(N)=O)C(=O)N[C@H](C(=O)N[C@@H](Cc1ccc(O)cc1)C(N)=O)[C@@H](C)O)C(C)C)[C@@H](C)O ({C20 diacid-γGlu}-KCNTATCATQRLAEFLRHSSNNFGPILPPTNVGSNTY-NH2; disulfide 2-7) | 0.532 | 0.1 | 200 (≈ 895 µg/mL) | 200 (≈ 895 µg/mL) | 2.06 | 0.447 | 0.35 | 0.811 |  | 4 | 85 | 45 | 4 | 30 | 0.5 | 8 |  |  | 
4 | CC[C@H](C)[C@H](NC(=O)[C@@H]1CCCN1C(=O)CNC(=O)[C@H](Cc1ccccc1)NC(=O)[C@H](CC(N)=O)NC(=O)[C@H](CC(N)=O)NC(=O)[C@H](CO)NC(=O)[C@H](CO)NC(=O)[C@H](Cc1cnc[nH]1)NC(=O)[C@H](Cc1cnc[nH]1)NC(=O)[C@H](CC(C)C)NC(=O)[C@H](Cc1ccccc1)NC(=O)[C@H](CCC(=O)O)NC(=O)[C@H](C)NC(=O)[C@H](CC(C)C)NC(=O)[C@H](CCCNC(=N)N)NC(=O)[C@H](CCC(N)=O)NC(=O)[C@@H](NC(=O)[C@H](C)NC(=O)[C@@H]1CSSC[C@H](NC(=O)[C@H](Cc2cnc[nH]2)NC(=O)[C@H](Cc2cnc[nH]2)C(=O)NC(=O)[C@H](Cc2cnc[nH]2)NC(=O)CC[C@H](NC(=O)CCCCCCCCCCCCCCCCCCC(=O)O)C(=O)O)C(=O)N[C@@H](CCCNC(=N)N)C(=O)N[C@@H]([C@@H](C)O)C(=O)N[C@@H](C)C(=O)N[C@@H]([C@@H](C)O)C(=O)N1)[C@@H](C)O)C(=O)N[C@@H](CC(C)C)C(=O)N1CCC[C@H]1C(=O)N1CCC[C@H]1C(=O)N[C@H](C(=O)N[C@@H](CC(N)=O)C(=O)N[C@H](C(=O)NCC(=O)N[C@@H](CO)C(=O)N[C@@H](CC(N)=O)C(=O)N[C@H](C(=O)N[C@@H](Cc1ccc(O)cc1)C(N)=O)[C@@H](C)O)C(C)C)[C@@H](C)O ({C20 diacid-γGlu}-[X1]HCRTATCATQRLAEFLHHSSNNFGPILPPTNVGSNTY-NH2; disulfide 3-8) |  | 0.096 | 200 (≈ 962 µg/mL) | 200 (≈ 962 µg/mL) |  | 0.157 |  |  |  | 2 | 14 | 3 |  | 26 | 5 | 5 | 0.261 | 1.29 | solubility [17]: 1 µM (≈ 4.81 µg/mL); solubility [18]: 200 µM (≈ 962 µg/mL); solubility [19]: 3 µM (≈ 14.4 µg/mL); solubility [21]: 57 µM (≈ 274 µg/mL); solubility [23]: 2 µM (≈ 9.62 µg/mL); solubility [24]: 200 µM (≈ 962 µg/mL)
5 | CC(C)C[C@H](NC(=O)[C@H](CCCCN)NC(=O)CNC(=O)[C@H](CC(C)C)NC(=O)[C@@H](NC(=O)[C@@H]1CSSC[C@H](N)C(=O)N[C@@H](CO)C(=O)N[C@@H](CC(N)=O)C(=O)N[C@@H](CC(C)C)C(=O)N[C@@H](CO)C(=O)N[C@@H]([C@@H](C)O)C(=O)N1)C(C)C)C(=O)N[C@@H](CO)C(=O)N[C@@H](CCC(N)=O)C(=O)N[C@@H](CCC(=O)O)C(=O)N[C@@H](CC(C)C)C(=O)N[C@@H](Cc1c[nH]cn1)C(=O)N[C@@H](CCCCN)C(=O)N[C@@H](CC(C)C)C(=O)N[C@@H](CCC(N)=O)C(=O)N[C@H](C(=O)N[C@@H](Cc1ccc(O)cc1)C(=O)N1CCC[C@H]1C(=O)N[C@@H](CCCNC(=N)N)C(=O)N[C@H](C(=O)N[C@@H](CC(N)=O)C(=O)N[C@H](C(=O)NCC(=O)N[C@@H](CO)C(=O)NCC(=O)N[C@H](C(=O)N1CCC[C@H]1C(N)=O)[C@@H](C)O)[C@@H](C)O)[C@@H](C)O)[C@@H](C)O [CALCITONIN SALMON] | 0.028 | 0.002 |  |  | 0.03 | 0.003 |  | 0.066 | 1 | 2 |  |  | 1 |  |  |  | 0.001 | 0.0001 | 
